Values quoted from earlier work, collected in US20060094833A1, “Shock resistant cyanoacrylate compositions” (LOCTITE (R&D) LIMITED, priority 2004, published 2006).

Conditions: for pKa 1: first acid group; for pKa 4: fourth; for pKa 2: second acid group; for pKa 3: third acid group

Compound | pKa 1 | pKa 4 | pKa 2 | pKa 3
O=C(O)CC(C(=O)O)C(CC(=O)O)C(=O)O (centres unmarked) [1,2,3,4-Butane tetracarboxylic acid] | 3.25 | 6.54 | 4.51 | 5.02
O.O=C(O)c1cccc(C(=O)O)c1C(=O)O [1,2,3-Benzene tricarboxylic acid hydrate] | 2.52 | – | 4.00 | 6.12
O=C(O)CC(CC(=O)O)C(=O)O [1,2,3-Propane tricarboxylic acid] | 4.31 | – | 4.82 | 5.21
O=C(O)C=C(CC(=O)O)C(=O)O [1,2,3-Propene tricarboxylic acid] | 2.97 | – | 4.34 | 4.99
O=C(O)c1cc(C(=O)O)c(C(=O)O)cc1C(=O)O [1,2,4,5-Benzene tetracarboxylic acid] | – | 5.80 | 2.71 | 4.97
O=C(O)c1ccc(C(=O)O)c(C(=O)O)c1 [1,2,4-Benzene tricarboxylic acid] | – | – | 3.83 | –
O=C(O)c1ccc2c(c1)C(=O)OC2=O [1,2,4-Benzene tricarboxylic anhydride] | 3.33 | – | – | –
O=C(O)CC(O)(CC(=O)O)C(=O)O [Citric acid] | 2.93 | 16.13 | 4.23 | 5.09
CC(=O)C(=O)O [Pyruvic acid] | 2.65 | – | – | –
